We go through one compound from patent publication US11926846B2, “Hydroxyurea to enhance sperm cells” (Meharry Medical College, priority 2017, dated 2024).

Several values for one entry are separate records, joined by “and”; a condition that tells them apart may be missing. Equal entries are not always repeated.

The test system of data set [1] is human sperm. Kind of data set: Sperm motility after 24 hour culture in HTF-buffer containing HU (Working Example 1). It is filed as cell-based. The settings on record: 18 μg HU/mL, 37° C. How it is done:
Human sperm was processed with HU to show enhanced motility over human sperm not processed with HU. Normal human semen was collected in 15 mL conical centrifuge tubes. Highly motile (i.e., Grade a) sperm were isolated and collected from the semen. The isolated highly motile sperm were washed in an HTF medium (HTF-HEPES; pH 7.4) containing 0.5% Bovine Serum Albumin (“BSA”) by centrifugation and suspended in bicarbonate (25 mM)-buffered HTF containing 0.5% (5 mg/ml) BSA (36; pH 7.4). Subsequently, each sperm suspension was incubated at 37° C. in an atmosphere of 5.0% CO2 in humidified air until aliquoted into the different treatment groups: a control group and a hydroxyurea processed group.
(§1) The control group was cultured in HTF-buffer containing 0 μg HU/mL at 37° C. in an atmosphere of 5.0% CO2 in humidified air for 24 hours. After the 24 hour culture, the control sperm were evaluated for pattern and degree of motility.
The hydroxyurea processed group was cultured in HTF-buffer containing 18 μg HU/mL at 37° C. in an atmosphere of 5.0% CO2 in humidified air for 24 hours. After the 24 hour culture, the hydroxyurea processed sperm were evaluated for pattern and degree of motility. […] The percentage of motile spermatozoa was calculated by multiplying the ratio of motile to 100 spermatozoa counted by 100.
The progressive motility of the control group sperm was higher (P<0.001; based on paired t-test comparison) than the progressive motility of the hydroxyurea processed group sperm. […] On the other hand, most of the sperm cells in the control buffer remained in a progressive motility state (motility pattern observed among sperm cells that have not acquired the ability to fertilize mature eggs). These findings are clinically significant, as progressive sperm motility is a determinant of ability of spermatozoa to penetrate cervical mucus on towards migration to the fertilization site (fallopian tubes), while that for hyperactive sperm motility (capacitation) is the motion pattern characteristic of spermatozoa that have attained the ability to fertilize mature eggs.

The subject of data set [2] is human spermatozoa in semen samples. Kind of data set: Post-cool and post-thaw sperm motility after cryopreservation in freezing buffer with HU (Working Example 4). In kind it is cell-based. The settings on record: FB+HU, final HU 1 μM, listed as HU. How it is done:
Post semen analysis was conducted of discarded and de-identified semen samples from Ovation Fertility Center that met the World Health Organization (WHO) criteria for normal semen samples. Those semen samples that met the WHO criteria for normal were divided into two halves. One half subjected to freezing with TEST-Yolk buffer (freezing buffer [FB]; Irvine Scientific, CA) containing 12% glycerol as cryoprotectant (control group). The remaining half of each sample was frozen with experimental freezing buffer composed of FB+HU (Sigma Aldridge, St. Louis; treatment group). Both control and experimental buffers were added on a 1:1 ratio to respective semen samples (v/v) in a dropwise manner. The final glycerol concentration in the semen+FB was 6% and the final HU concentration in semen+experimental freezing buffer was 1 μM to use a concentration of HU that is effective in inhibiting HIV replication. Pre-freeze sperm motility was determined for each sample prior to initiating the cooling arm of the freezing procedure. Samples in the control and treatment group were cooled for 24 hours to slow the HU induced vigorously motile cells in the treatment group. Subsequently, post cooling motility was determined prior to liquid nitrogen vapor phase freezing for 30 minutes before being stored immersed in LN for at least 24 hours before being thawed for analysis. […]

Data set [3] concerns rats. As to conditions: single dose; cited from earlier work.
Data set [4] has as its system rats. Kind of data set: Oral LD50 in rats. The settings on record: rat oral LD50 divided by 1000.
Data set [5] deals with human sperm. Kind of data set: Overall sperm motility after 24 hour culture with HU at HIV-suppressing concentrations (Working Example 2). It is filed as cell-based. As to conditions: HTF-buffer, 37° C., control 70.3. How it is done:
Normal human semen was collected in 15 mL conical centrifuge tubes. Highly motile (i.e., Grade a) sperm were isolated and collected from the semen. The isolated highly motile sperm were washed in HTF medium containing 0.5% BSA (HTF-HEPES; pH 7.4) by centrifugation and suspended in bicarbonate (25 mM)-buffered HTF containing 0.5% (5 mg/ml) BSA (36; pH 7.4). Subsequently, each sperm suspension was incubated at 37° C. in an atmosphere of 5.0% CO2 in humidified air until aliquoted into the different treatment groups: a control group and a hydroxyurea processed group.
as §1
The hydroxyurea processed groups were cultured in HTF-buffer in two groups containing different concentrations of HU: (1) 1.0 mM HU and (2) 2.0 mM HU. The groups were cultured at 37° C. in an atmosphere of 5.0% CO2 in humidified air for 24 hours. After the 24 hour culture, the hydroxyurea processed sperm were evaluated for pattern and degree of motility.
Thus, it had been previously believed that HU was an unsuitable agent to suppress HIV replication and/or activation in semen, or to reduce the risk of HIV transmission, via HU treatment of reproductive cells.

In data set [6] the test system is human spermatozoa in semen samples. As to the kind of experiment: Sperm motility after cooling in freezing buffer with HU before cryopreservation (Working Example 3). It is filed as cell-based. How it is done:
Post semen analysis was conducted of discarded and de-identified semen samples from Ovation Fertility Center that met the World Health Organization (WHO) criteria for normal semen samples. Those semen samples that met the WHO criteria for normal were divided into two halves. One half was subjected to freezing with TEST-Yolk buffer (freezing buffer [FB]; Irvine Scientific, CA) containing 12% glycerol as cryoprotectant (control group). The remaining half of each sample was frozen with experimental freezing buffer composed of FB+HU (Sigma Aldridge, St. Louis; treatment group). Both control and experimental buffers were added on a 1:1 ratio to respective semen samples (v/v) in a dropwise manner. The final glycerol concentration in the semen+FB was 6%, and the final HU concentration in semen+experimental freezing buffer was 1 μM to use a concentration of HU that is effective in inhibiting HIV replication. Pre-freeze sperm motility was determined for each sample prior to initiating the cooling step of the freezing procedure. Samples in the control and treatment group were cooled for 24 hours to slow the HU-induced vigorously motile cells in the treatment group. Subsequently, post cooling motility was determined prior to liquid nitrogen vapor phase freezing for 30 minutes before being stored immersed in liquid nitrogen (LN) for at least 24 hours before being thawed for analysis. Samples were thawed at room temperature for 35 minutes prior to motility analysis.

Take `NC(=O)NO` [hydroxyurea, Hydroxyurea]: in the data set on human sperm [1] (5.0% CO2, 24 hours, control 75.4), the “overall percentage motility (progressively + hyperactively motile spermatozoa)” value amounted to 79.0%. Moreover, in the data set with human sperm [1] (24 hours, control 23.0), the hyperactive motility worked out at 41.3%. For the same compound, the progressive sperm motility in the data set on human sperm [1] (24 hours, control 51.7±10.2) was found to be 37.7%. In addition, in data set [2] (liquid nitrogen at least 24 hours, thawed 35 minutes at room temperature, first figure of cell), the “Post-thaw Motility (HU; %)” value is 44% and 50% and 32%. Also, the “Post-thaw Survival Relative to Post-cool Motility (HU; %)” value in data set [2] (post-thaw, second figure of cell) was 71% and 76% and 49%. Also, in the data set with rats [3], the “oral LD50” value is given as 5780 mg/kg. For the same compound, the “maximum effective dose (rough maximum safe dose for humans)” value in the data set on rats [4] is not above 5.78 mg/kg. The overall motility is given as 66.6 in the data set with human sperm [5] (1.0 mM HU) and 68.3 with human sperm [5] (2.0 mM HU). Further, in data set [6] (HU treated, video stills over about 9 seconds, control low level), the “level of overall spermatozoa with motility (FIGS. 2A-2H)” value is listed as “moderate to high level”. For the same compound, the “motility maintained of the initial population of motile spermatozoa (pre-freeze)” value in data set [6] (freezing medium supplemented with HU, control 28-45%) is given as 76-84%. For the same compound, the “longevity among post-thaw spermatozoa versus control group” value in data set [6] (frozen in FB+HU, post-thaw) is “higher”. In addition, the “mean of the post-cool motility relative to post cool motility (survival of cooling process in percentage)” value in data set [6] (mean of seven HU treated samples, control 50.71) is 71.91%.
